Earlier results as cited in patent publication US11903921B2 (priority 2020, dated 2024).

How the values were obtained:
[1] = tested on: hyaluronan; details: inhibitor of hyaluronan; compared with 4-MU
[2] = tested on: ovalbumin-induced asthma; details: through inhibition of NF-κB activity
[3] = tested on: LPS-induced acute pulmonary inflammation; details: 100 μmol/kg bodyweight, mouse
[4] = tested on: basophils
[5] = animal and human studies; orally in water, inhaled, intravenous
[6] = tested on: influenza and respiratory tract infections; details: prophylaxis and treatment
[7] = tested on: SEB-exposed mice; details: mouse, in vivo

In the case of O=c1c(O)c(-c2ccc(O)c(O)c2)oc2cc(O)ccc12 [Fisetin], the “effective dose relative to 4-MU” value [1] is listed as 10 times lower, the “efficacy in ovalbumin-induced asthma” value [2] is listed as “effective” and the “anti-inflammatory effects compared with dexamethasone” value [3] is listed as “more pronounced than dexamethasone”. The measures of inflammation [3] was “significantly reduced numerous measures of inflammation” and the “expression of T(H)2-type cytokines (IL-4, IL-13, and IL-5)” value [4] was “powerfully suppress”.
For [HH] [Molecular hydrogen], the harmlessness [5] is listed as “essentially harmless”.
For CCCCCCCCCCCCCCCC(=O)NCCO [PEA, palmitoylethanolamide], the “efficacy and safety in influenza and respiratory tract infections” value [6] is given as “effective and safe”.
In the case of Cc1cc(=O)oc2cc(O)ccc12 [4-MU, 7-Hydroxy-4-methyl-2H-chromen-2-one], the SEB-induced lung permeability [7] is listed as “reduction in SEB-induced lung permeability”, the cytokine production [7] is listed as “reduced cytokine production” and the “expression of HAS-1, HAS-2, and HAS-3” value [7] is listed as “reduces expression of HAS-1, HAS-2, and HAS-3”. For the same molecule, the “levels of HA in the lungs” value [7] was “reduced levels of HA”.
